From patent US7052850B2, “Isolated human EDG-4 receptor” (priority 1997, dated 2006)

Experiments:
HeLa cells [1] = experiment: IL-8 response (IL-8 ELISA) in HeLa cells; type: cell-based, human
Procedure: • Cells: HeLa (adenocarcinoma, human) • Media: DMEM/F12+10% FBS Adherent • 1) Cells were seeded at 0.2×10^6 cells/well in 6-well plates. • 2) Confluency of cells after 24–32 hrs was between 60–70%. B. Overnight Serum-Starvation • 1) Media was aspirated (no PBS wash). • 2) 1.5 ml 0.5% FBS media was added to each well. C. Treatments and Collection • 1) Made up all required solutions in 0.5% FBS media (control). Handling of […] for use in NF-κB experiments requires that sonication, commonly used to resuspend LPA, not be done; NF-κB may be activated by lipid peroxides created through vigorous frothing. Solutions:
D. Detection of Interleukin-8 (IL-8) using an IL-8 ELISA (Enzyme-Linked ImmunoSorbent Assay). • 1) The Quantikine Human IL-8 Immuno Assay Kit was obtained from R&D Systems (Cat. D8050). • 2) The kit and all samples were allowed to equlibrate to room temperature prior to use. • 3) All reagents were provided in the kit and prepared according to the instructions provided. • 4) The assay procedure was followed as recommended in the kit for cell culture supernatant samples. • 5) ELISA was performed on 50 μl samples of culture supernatant and duplicate samples were measured for each well. Each treatment was performed on triplicate wells. • 6) Plates were read on UV max kinetic microplate reader (Molecular Devices), set to 450 nm and correction set to 575 nm, using Wsoftmax sotware version 2.34.
• 1) Cells were seeded at 2.5×10^4 cells/well in 24-well plates. • 2) Confluency of cells after 24–32 hrs was between 60–70%. B. Overnight Serum-Starvation and PTX Pre-Treatment • 1) Media was aspirated (no PBS wash). • 2) 0.5 ml 0.5% FBS media was added to all wells not requiring PTX pre-treatment. • 3) For well requiring PTX; 0.5 ml 0.5% FBS media containing 50 ng/ml PTX (1 volume PTX (RBI Cat. P140): 1 volume DTT, incubate 37° C. for 30 minutes then dilute to 50 ng/ml) was added. C. Treatments and Collection • 1) Made up all required solutions in 0.5% FBS media (control). […] D. Refer to Procedure #1 For HeLa Cells (D).

HeLa cells [2] = experiment: Cytotoxicity (viable cell count at 24 hr) in HeLa cells; conditions: NDGA 40 μM
Procedure: For this purpose, an experiment was conducted to measure cytotoxicity in parallel with IL-8 response.

human EDG-4 = target: T1, human EDG-4 (Homo sapiens, UniProt O95136, F273L/I205V); experiment: Relative potency and efficacy of agonists, luciferase (SRE) reporter in 293-EBNA cells expressing recombinant human EDG-4; type: cell-based; conditions: for Rank (EMax): rank of efficacy
T1 construct: a 1059 bp open reading frame (excluding the stop codon) corresponding to the complete human edg-4 coding region; expressed in transfected cells; host or cells: 293-EBNA
T1 sequence (O95136 whole entry I205V/F273L): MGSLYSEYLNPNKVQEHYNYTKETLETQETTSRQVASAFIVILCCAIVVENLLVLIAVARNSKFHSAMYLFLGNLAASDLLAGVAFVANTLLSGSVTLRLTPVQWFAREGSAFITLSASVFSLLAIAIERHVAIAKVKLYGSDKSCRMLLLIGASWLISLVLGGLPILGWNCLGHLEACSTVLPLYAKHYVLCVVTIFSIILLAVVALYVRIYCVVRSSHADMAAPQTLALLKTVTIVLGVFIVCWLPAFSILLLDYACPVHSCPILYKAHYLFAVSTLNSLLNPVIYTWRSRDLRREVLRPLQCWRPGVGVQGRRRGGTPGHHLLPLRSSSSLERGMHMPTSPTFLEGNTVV
Procedure: (§1) Transfection of EDG-4, expression, pretreatment and treatment of 293-EBNA cells expressing recombinant human EDG-4 was carried out essentially as described in “Example 11. […] Results were tabulated in Microsoft Excel, and analyzed with GraphPad Prism sotfware. […] The luciferase response was expressed as fold response, after subtracting any endogenous response in pcDNA3-transfected cells at a given concentration of compound.

293-EBNA cells = type: cell-based
Procedure: as §1

[3] = tested on: Human Umbilical Vein Endothelial Cells (HUVEC); experiment: IL-8 response in primary cultured HUVEC; type: cell-based; conditions: 5 μM, 6 hr
Procedure: Cells: HUVEC (Clonetics, Cat. CC-2519) were passaged according to supplier's instructions and used at passage 3. Cells were plated at 20,000 cells/well into 24-well plates. […] LPA induced a 3-fold IL-8 increase at this concentration. […] As shown below in FIG. 23, three cloned edge receptors respond to LPA as an agonist, and all three appear to transduce NF-κB activation in an agonist-dependent manner.

rat EDG-4 = rat EDG-4 (Rattus norvegicus, UniProt P47752); experiment: NF-κB-tk-p4Luc luciferase reporter in 293-EBNA cells, rat EDG-4; type: cell-based; parameters: transient transfection with a eukaryotic expression vector expressing full-length rat edg-4 cDNA; expressed in transfected cells; host or cells: 293-EBNA; conditions: Assay 1; 24 hrs
Sequence of rat EDG-4 (P47752 whole entry): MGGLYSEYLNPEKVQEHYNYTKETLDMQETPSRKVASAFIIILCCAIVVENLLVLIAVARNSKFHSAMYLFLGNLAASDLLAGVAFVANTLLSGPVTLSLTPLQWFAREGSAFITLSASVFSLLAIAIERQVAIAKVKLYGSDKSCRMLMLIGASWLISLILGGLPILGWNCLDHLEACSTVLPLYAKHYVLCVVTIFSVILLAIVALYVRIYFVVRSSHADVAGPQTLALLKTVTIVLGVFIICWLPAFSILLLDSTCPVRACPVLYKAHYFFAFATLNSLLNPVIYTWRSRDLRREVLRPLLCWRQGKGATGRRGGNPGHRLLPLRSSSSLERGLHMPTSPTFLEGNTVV
Source text: First, the NF-κB response element was reconstructed in a new reporter construct (p4Luc) suitable for stable maintenance as an episome in primate cells. […] The p4-Luc reporter used the backbone of pREP4 (Invitrogen; Cat. V004-50), which contains the EBV orgin of replicaiton (EBVoni), as well as the EBNA-1 viral antigen required to maintain EBVoti containing plasmids as stable episoms in primate cells, and a prokayotic selection marker. A dominant eukaryotic selection marker for zeocin resistance was substituted for expression in pREP4. The promoter of pREP4 was then excised and replaced with a multi-cloning site for introduction of promoter/enhancer inserts. The NF-κB inser of the previous CAT reporter was subcloned into this site and all cloning junctions were sequenced to verify the structure of the plasmid, called NF-κB-tk-p4Luc.
• 1) 150 mm plates of 293-EBNA obtained from Invitrogen (Cat. R620-07) with a confluency of 18 80% were used for transfection. • 2) 6.6 μg NF-κB-tk-p4Luc reporter DNA and 6.6 μg of pC3-redg4 (expressing rat EDG-4), or pcDNA3 DNA was diluted in 500 μl OPTI-MEM (Gibco; Cat. 31985-062) • 3) 96.8 μl Lipofectamine (Gibco; Cat. 18324-020) was diluted in 500 μl of OPTI-MEM. • 4) The 2 solutions were mixed gently and the tube was incubated for 30 min at room temperature. • 5) The 293-EBNA plates were washed once with PBS and 13 ml OPTI-MEM was added to each plate, • 6) 6 ml OPTI-UMM was added to each transfection tube and this was added to a plate of 293EBNA cells. The plates were left for 4 hrs at 37° C. in a 5% CO2 incubator. • 7) After 4 his, the media was removed and replaced with frest 10% FBS media. Day 2: • 1) Transfected cells were washed, typsinized with 1× tryspin, resuspended in 10 ml media and counted. • 2) 0.02×10 ^6 cells were plated per well of a 96-well Blackview plate coated with polyD-lysine. No cells were plated in the outside wells of the 96-well plate. Two 96-well plates were seeded for each transfection. Day 3: • 1) Cells were washed with PBS and 140 μl serum-free media (SFM) added to each well. Plates were incubated in 37° C. incubator for 6 hrs. • 2) After 6 hrs, media was removed and cells treated with compounds diluted in 0.5% FBS media (140 μl added to each well).
Day 4 Luciferase Assay • 1) Luclite kit (Packard; Cat. 6016911) was used for luciferase assay. All reagents were brought to room temperature before use. • 2) Supernatant was transferred to a new 96-well plate and stored at −20 C. for rupture IL-8 measurement. • 3) 50 μl 0.5 M HEPES pH 7.8 buffer (1 mM MgCl21 mM CaCl2) was addeded to all wells of 96-well plate. Black adhesive backing (polyfitronics) was aligned to the bottom of the viewplate. • 4) Luclite substrate was made up by adding 10 ml substate diluent to 1 vial lyophilized substrate. Reconstituted substrate was kept under a dark container. 50 μl substrate was added to each well. • 5) A clear adhesive plate sealer was adjusted on to the viewplate and sealer rubbed over the plate with a Kimwipe. The plate was shaken on a plate shaker at 500 rpm for 5 seconds right side up and then upside down. A stop plate was placed on top of the blackview plate to keep it in the dark. • 6) Plates were incubated at room temperature for 30 min. • 7) After incubation, plates were counted in a 12 detector Packard Top Count on a program without dark delay.

HL-60 cells = experiment: IL-8 response in HL-60 cells; type: cell-based, human; conditions: 1, 6 or 24 hours, S1P or LPA up to 3 μM, TNF-α 10 ng/ml
[4] = S1P 1 μM, NDGA 40 or 10 μM, NAC 30 mM, 30 minute pre-treatment

Question: How did the “inhibition of IL-8 response to S1P” value (HeLa cells [1]; S1P 1 μM, NDGA 40 μM) turn out when CC(Cc1ccc(O)c(O)c1)C(C)Cc1ccc(O)c(O)c1 (stereo not shown) [NDGA] was run?
Answer: completely inhibited

Question: What about the “inhibition of IL-8 response to S1P” value (HeLa cells [1]; [4]) of the same molecule?
Answer: significantly inhibited

Question: What about the toxicity (HeLa cells [2]) of the same molecule?
Answer: some toxicity

Question: What does the source list for Cc1ccc(C(=O)Nc2ccc(S(=O)(=O)O)c3cc(S(=O)(=O)O)cc(S(=O)(=O)O)c23)cc1NC(=O)c1cccc(NC(=O)Nc2cccc(C(=O)Nc3cc(C(=O)Nc4ccc(S(=O)(=O)O)c5cc(S(=O)(=O)O)cc(S(=O)(=O)O)c45)ccc3C)c2)c1 [Suramin]?
Answer: inhibition of IL-8 response to edelfosine (HeLa cells [1]; ET-18-OCH3 3 μM, PTX 50 ng/ml or suramin 1 mg/ml): potently inhibited; effect on IL-8 response to S1P (HeLa cells [1]; S1P 1 μM, suramin 1 mg/ml, 30 minute pre-treatment): extremely effective in blunting the IL-8 response to S1P

Question: With CCCCCCCCCCCCC/C=C/[C@@H](O)[C@@H](N)CO [sphingosine] as the molecule, how does the IL-8 induction (HeLa cells [1]; 6 hours, concentration series) read?
Answer: lack of response

Question: Which “agonist character at EDG-4” value (human EDG-4) does the source give for CCCCCCCCCCCCC/C=C/[C@@H](O)[C@@H](N)CO[C@@H]1O[C@H](CO)[C@H](O)[C@H](O)[C@H]1O [Psychosine, psychosine] here?
Answer: poor potency and efficacy

Question: What about the “Rank (EMax)” value (human EDG-4) of the same molecule?
Answer: 5

Question: What about the “concentration at which cytotoxicity was seen” value (293-EBNA cells) of the same molecule?
Answer: ^aCytotoxicity was seen at 10 μM or higher concentrations, preventing quantitative determination of EC50 or EMax

Question: What about the “IL-8 levels, increase over untreated controls” value [3] of the same molecule?
Answer: Marginal increases

Question: How did the “induction of NF-κB reporter” value (rat EDG-4) turn out when CCCCCCCCCCCCCC(=O)O[C@@H]1[C@@H](C)[C@@]2(O)[C@@H](C=C(CO)C[C@]3(O)C(=O)C(C)=C[C@@H]23)[C@H]2C(C)(C)[C@]12OC(C)=O [TPA] was run?
Answer: strongly induced

Question: Which “agonist character at EDG-4” value (human EDG-4) does the source give for CCCCCCCCCCCCCCC[C@@H](O)[C@@H](N)COP(=O)(O)O [Dihydro-S1P, dihydrosphingosine 1-phosphate] here?
Answer: partial agonist

Question: And the “Rank (EMax)” value (human EDG-4)?
Answer: 3

Question: Which results are given for CCCCCCCCCCCCC/C=C/[C@@H](O)C(N)CO[C@@H]1O[C@H](CO)[C@@H](O)[C@H](O)[C@@H]1O (stereo partly shown) [Glucospychosin, glucopsychosine]?
Answer: agonist character at EDG-4 (human EDG-4): poor potency and efficacy; Rank (EMax) (human EDG-4): 4; concentration at which cytotoxicity was seen (293-EBNA cells): ^aCytotoxicity was seen at 10 μM or higher concentrations, preventing quantitative determination of EC50 or EMax

Question: How did the “IL-8 levels, increase over untreated controls” value [3] turn out when CCCCC/C=C\C/C=C\C/C=C\C/C=C\CCCC(=O)NCCO [anandamide] was run?
Answer: no responses

Question: How did the “inhibition of IL-8 response to S1P” value (HeLa cells [1]; [4]) turn out when CC(=O)N[C@@H](CS)C(=O)O [NAC] was run?
Answer: significantly inhibited

Question: TNF-α was tested. Which IL-8 release (HL-60 cells) did it give?
Answer: capable of responding at 6 or 24 hr
